This note sets out measurements from patent publication US20030073672A1, “Method for treating allergies using substituted pyrazoles” (priority 2001, published 2003).

One test deals with allergic volunteers. Briefly: Monitoring in vivo inhibition of allergenic response (cutaneous reactions). Particulars: allergens deposited subcutaneously.
In test [1] the test system is human T cell proliferative responses to house dust mite extracts (Der p, Der f) in PBMC. Briefly: Ex vivo human T cell-proliferation assay, house dust mite extracts. It is filed as cell-based. Particulars: seven days; for human T cell proliferative responses to Der f: PBMC from an allergy donor, Der f extract, titrated doses of compound, FIG. 3. From the text: This proliferation consisted primarily of allergen-specific CD4 T cells.

The test system of test [2] is T cell proliferative responses induced by ConA in PBMC. The test is described as follows: Ex vivo human T cell-proliferation assay, ConA control. In kind it is cell-based. The following applies: PBMC of allergic donors, a pan-T cell mitogen. From the text:
Reagents. […] Cell culture.

In test [3] the test system is invariant chain (Ii) degradation, p10Ii fragment, in PBMC from human blood. The test is described as follows: Monitoring cathepsin S inhibition in human blood (p10Ii Western blot). Particulars: incubation for 24 h, SDS-PAGE / Western blot. It is filed as cell-based. The protocol:
The effect of in vivo administration of cathepsin S inhibitors, in a clinical trial setting, can be monitored by measuring accumulation of an intermediate degradation product of invariant chain (Ii), i.e. the p10Ii fragment, in blood of dosed subjects. After administration of a cathepsin inhibitor for a certain period of time, for example, between 0.01 and 50 mg/kg/day, to result in a blood concentration of between 1 nM-10 μM, for 16-30 h, blood is drawn and white blood cells are purified, e.g. either by lysis of red blood cells or by a Ficoll-Hypaque gradient centrifugation. Whole cell lysates of WBC are then made and analyzed by either a Western blot assay or an ELISA assay. For the Western blot assay, cell lysates are first resolved on SDS-PAGE gels. After transferring to nitrocellulose membranes, Ii and its intermediate degradation products, including the p10Ii, can be detected using a mouse mAb against Ii, e.g. Pin.1, or rabbit polyclonal antibodies specific for the C-terminus of the p10Ii fragment or against the entire p10Ii fragment. For ELISA assay, a pair of antibodies against Ii, including Pin1.1, and a rabbit polyclonal antibody or a mouse monoclonal antibody specific for p10Ii, can be used. The same assay can also be applied to monitor the effect of cathepsin S inhibitors in vivo in animal studies, for example in monkeys, dogs, pigs, rabbits, guinea pigs, and rodents.
In general terms: A western blot detects proteins with antibodies after separation by electrophoresis.

In test [4] the test system is human T cell proliferative responses to ragweed extracts (short, giant) in PBMC. Briefly: Ex vivo human T cell-proliferation assay, ragweed extracts. The following applies: PBMC of ragweed-allergic donors, short and giant ragweed extracts, FIG. 2B.

For `C[C@]12C=CC(=O)C=C1CC[C@@H]1[C@@H]2C(=O)C[C@@]2(C)[C@H]1CC[C@]2(O)C(=O)CO` [Prednisone, prednisone], the “immediate weal and flare response” value in the test on allergic volunteers (15 min) was “inhibit both the immediate and the late phase responses”. Besides, the “late phase response (induration)” value with allergic volunteers (6 h and 24 h) was “inhibit both the immediate and the late phase responses”.

With `CC(C)C[C@H](NC(=O)N1CCOCC1)C(=O)N[C@H](/C=C/S(=O)(=O)c1ccccc1)CCc1ccccc1` [LHVS, 4-morpholinecarboxamide, N-[(1S)-3-methyl-1-[[[(1S,2E)-1-(2-phenylethyl)-3-(phenylsulfonyl)-2-propenyl]amino]carbonyl]butyl]-], in test [1] (PBMC of HDM-allergic donors, Der p or Der f extracts, FIG. 1B), the “T cell proliferation (3H-thymidine incorporation) induced by HDM extracts” value is “strongly inhibited”. In addition, the “T cell proliferative responses induced by ConA” value in test [2] is recorded as “not affected”. Moreover, the “p10Ii fragment accumulation (block in the degradation of Ii)” value in test [3] was “the p10Ii fragment was seen”. Moreover, the “T cell proliferation (3H-thymidine incorporation) induced by ragweed extracts” value in test [4] is listed as “strongly inhibited”.

For `N#Cc1ccccc1N1CCN(CC(Cn2nc(-c3ccc(I)cc3)c3c2CCN(C(N)=O)C3)OC(N)=O)CC1` (stereo not shown) [Example 11, Carbamic acid 1-[5-carbamoyl-3-(4-iodo-phenyl)-4,5,6,7-tetrahydro-pyrazolo[4,3-c]pyridin-1-ylmethyl]-2-[4-(2-cyano-phenyl)-piperazin-1-yl]-ethyl Ester], the “human T cell proliferative responses to Der f” value in test [1] was “inhibition”. Further, the “T cell proliferative responses induced by ConA” value in test [2] is “but not ConA”.

On to `CS(=O)(=O)N1CCc2c(c(-c3ccc(I)cc3)nn2CC(O)CN2CCN(c3ccccc3C#N)CC2)C1` (stereo not shown) [Example 36, 2-(4-{2-Hydroxy-3-[3-(4-iodo-phenyl)-5-methanesulfonyl-4,5,6,7-tetrahydro-pyrazolo[4,3-c]pyridin-1-yl]-propyl}-piperazin-1-yl)-benzonitrile], for which the “human T cell proliferative responses to Der f” value in test [1] is recorded as “inhibition”. In addition, the “T cell proliferative responses induced by ConA” value in test [2] is reported as “but not ConA”.
